Measured values: publication PMC9190099, “Menthol carbonates as potent antiparasitic agents: synthesis and in vitro studies along with computer-aided approaches” (BMC Complementary Medicine and Therapies, 2022)
Like-named read-outs stand apart in the source and are kept apart here.

Experiments:
in vitro = assay: in vitro
Protocol: Then, 100 µL of cell suspension and 100 μL of each concentration of the compounds were placed in each well of 96-well tissue culture microplate, and plates were incubated again at 37 °C, 5% CO2. […] The reaction was stopped with 100 μL/well of DMSO and absorbance was recorded at 570 nm (Varioskan Flash, Thermo Scientific, Waltham, MA, USA). […] Each measurement was done in triplicate in two independent experiments.
To calculate the cytotoxicity, the percentages of mortality for each concentration tested were calculated according to Eq. 1:
1 %Mortality=100-ODexposedcells/ODnonexposedcellsx100
(§1) Then, these percentages of mortality were used to calculate the median lethal concentrations (LC50) by Probit analysis using Graphpad Prism 8 software. In the case of antiparasitic activity (L. braziliensis, T. cruzi and P. falciparum), the percentage in the reduction of parasites for each concentration tested was quantified using Eq. 2:
(§2) All experiments were performed in triplicate. Both cytotoxicity and antiparasitic activity were classified as high, moderate, or low, according to ranges previously established based on the own hit criteria.

[1] = tested on: L. braziliensis intracellular amastigotes (HMOM/COL/88/UA301-EGFP); assay: In vitro activity against L. braziliensis amastigotes in U-937 cells (flow cytometry); format: cell-based, Leishmania braziliensis; settings: for Leishmanicidal activity IS (Index of Selectivity = LC50/EC50): LC50 U-937 / EC50 L. braziliensis; for EC50: intracellular amastigotes of L. braziliensis, 72 h, read-out: Leishmanicidal activity EC50 (median effective concentration); for Leishmanicidal activity class: L. braziliensis amastigotes
Protocol: (§3) Compounds were solubilized in DMSO (1 mg/mL, w/v).
One ml was dispensed into each well of a 24-well culture plate. After 72 h, cells were infected with promastigotes of L. braziliensis (HMOM/COL/88/UA301-EGFP) in a proportion of 15:1 (parasites per cell ratio). Plates were incubated at 34 °C, 5% CO2, and 3 h after non-internalized promastigotes were removed by washing twice with phosphate buffer (PBS). Plates were incubated again at 34 °C, 5% CO2, and 24 h later cells were washed with warm PBS and medium replaced. […] After 72 h, cells were removed using trypsin/EDTA solution and washed twice with PBS by centrifuging 10 min at 1100 rpm, 4 °C. […] The percentage of infected cells was calculated using dot plot analysis according to positive events for green fluorescence and then parasite load in these infected cells was calculated by histogram analysis according to the mean fluorescence intensity (MFI). Infected cells were used as control of infection (negative control) and infected cells exposed to Amphotericin B (AMB) were used as control of antileishmanial activity (positive control).
as §1
(§4) 2 %Parasitereduction=100ODorMFIexposedparasites/ODorMFIcontrolparasitesx100
as §2

[2] = tested on: T. cruzi intracellular amastigotes (Tulahuen strain); assay: In vitro activity for T. cruzi amastigotes in U-937 cells; format: cell-based, Trypanosoma cruzi; settings: for Trypanocidal activity IS (Index of Selectivity = LC50/EC50): LC50 U-937 / EC50 T. cruzi; for EC50: Trypanosoma cruzi, TULAHUEN, U-937, intracellular amastigotes of T. cruzi, 72 h, read-out: Trypanocidal activity EC50 (median effective concentration)
Protocol: as §3
Plates were incubated at 37 °C, 5% CO2. After 72 h of incubation, cells were infected with 5:1 […] of Tulahuen strain (24 h of growing) per cell ratio. Plates were incubated at 37 °C, 5% CO2. After 24 h of incubation 100 μL of each compound concentration were added to each well and plates were incubated again at 37 °C, 5% CO2. After 72 h of incubation 100 μL of chlorophenol red-β-D-galactopyranoside (CPRG) at 100 µM and 0.1%, Nonidet P-40 was added, and after 3 h of incubation, absorbance was read at 570 nm (Varioskan, Thermo). Infected cells exposed to Benznidazole (BZN) were used as a control for trypanocidal activity (positive control) while infected and non-treated cells were used as a control for infection (negative control). Nonspecific absorbance was corrected as described above. Each measurement was done in triplicate in two independent experiments.
as §1, §4, §2

[3] = tested on: P. falciparum (3D7 strain); assay: In vitro antiplasmodial activity (pLDH); format: cell-based, Plasmodium falciparum; settings: for Antiplasmodial activity IS (Index of Selectivity = LC50/EC50): LC50 U-937 / EC50 P. falciparum; for Antiplasmodial activity class: P. falciparum; for EC50: Plasmodium falciparum, P. falciparum 3D7, total forms, 48 h, read-out: Antiplasmodial activity EC50 (median effective concentration)
Protocol: Unsynchronized P. falciparum (3D7 strain) culture was adjusted to 0.5% parasitemia and 1% hematocrit in RPMI medium enriched with 3% lipid-rich bovine serum albumin-Albumax II. In each well of a 96-well tissue culture plate, 100 µl of parasite suspension and 100 µl of each dilution of the compounds were added. Plates were incubated for 48 h at 37 °C, 90% N2, 5% CO2, 5% O2. After incubation, supernatants were harvested and parasites were subjected to three 20–minute freeze–thaw cycles. In a second flat–bottomed 96-well microtiter plate were dispensed 100 µL of Malstat reagent, pH 9.0, 25 µL of NBT/PES solution, and 15 µL of lysed parasites. Plates were incubated in the dark at 37 °C for 90 min and color development of the pLDH reaction was read at 650 nm (Varioskan, Thermo). […] Nonspecific absorbance was corrected by subtracting optical density (OD) of the blank. […]. Each measurement was done in triplicate in two independent experiments.
as §1, §2

[4] = tested on: Echinococcus multilocularis protoscoleces; parameters: method as in PMID 32101761; settings: E. multilocularis protoscoleces, in vitro; cited from earlier work
[5] = tested on: murine model of alveolar echinococcosis; parameters: method as in PMID 32101761; settings: listed as menthol-pentanol prodrug; cited from earlier work
[6] = tested on: Leishmania amazonensis promastigotes; parameters: method as in earlier work; settings: ref 53 (Silva et al. 2017), read-out: EC50 against Leishmania amazonensis promastigotes; cited from earlier work
[7] = Leishmania braziliensis, U-937, 72 h

## C[C@@H]1[C@H](O)[C@@H](C)/C=C/C=C/C=C/C=C/C=C/C=C/C=C/[C@H](O[C@@H]2O[C@H](C)[C@@H](O)[C@H](N)[C@@H]2O)C[C@@H]2O[C@](O)(C[C@@H](O)C[C@@H](O)[C@H](O)CC[C@@H](O)C[C@@H](O)CC(=O)O[C@H]1C)C[C@H](O)[C@H]2C(=O)O [AMB, Amphotericin B, reference compound]
In vitro
  CC50 at 72 h: 53.9 ± 7.4 µM
[1]
  Leishmanicidal activity IS (Index of Selectivity = LC50/EC50): 134.8
[1]; Leishmania braziliensis, U-937
  EC50: 0.4 ± 0.1 µM

## O=C(Cn1ccnc1[N+](=O)[O-])NCc1ccccc1 [BNZ, Benznidazole, reference compound]
In vitro
  CC50 at 72 h: > 768 µM
[2]
  Trypanocidal activity IS (Index of Selectivity = LC50/EC50): 12.8
  EC50: 60.1 ± 12.2 µM

## COC(=O)OC1CC(C)CCC1C(C)C (stereo not drawn) [Compound 1, Metyl(2-Isopropyl-5-methylcyclohexanol)carbonate]
In vitro
  CC50 at 72 h: 68.5 ± 6.7 µM
[3]
  Antiplasmodial activity IS (Index of Selectivity = LC50/EC50): 0.5
  Antiplasmodial activity class: low (low activity (EC50 > 100 μM))
  EC50: 127 ± 9.9 µM
[2]
  Trypanocidal activity IS (Index of Selectivity = LC50/EC50): 0.6
  EC50: 105 ± 34.5 µM
[1]
  Leishmanicidal activity IS (Index of Selectivity = LC50/EC50): 3.0
[1]; [7]
  EC50: 22.9 ± 2.8 µM

## CCOC(=O)OC1CC(C)CCC1C(C)C (stereo not drawn) [Compound 2, Etyl(2-Isopropyl-5-methylcyclohexanol)carbonate]
In vitro
  CC50 at 72 h: 103 ± 35.8 µM
[3]
  Antiplasmodial activity IS (Index of Selectivity = LC50/EC50): 3.6
  Antiplasmodial activity class: high (high (EC50 < 50 μM))
  EC50: 28.4 ± 0.4 µM
[2]
  Trypanocidal activity IS (Index of Selectivity = LC50/EC50): 3.1
  EC50: 33.8 ± 4.3 µM
[1]
  Leishmanicidal activity IS (Index of Selectivity = LC50/EC50): 3.6
[1]; [7]
  EC50: 28.4 ± 0.4 µM

## CCCOC(=O)OC1CC(C)CCC1C(C)C (stereo not drawn) [Compound 3, Propyl(2-Isopropyl-5-methylcyclohexanol)carbonate]
In vitro
  CC50 at 72 h: 57 ± 14.4 µM
[3]
  Antiplasmodial activity IS (Index of Selectivity = LC50/EC50): 0.9
  EC50: 60.7 ± 1.2 µM
[2]
  Trypanocidal activity IS (Index of Selectivity = LC50/EC50): 1.7
  EC50: 33.8 µM
[1]
  Leishmanicidal activity IS (Index of Selectivity = LC50/EC50): 1.8
[1]; [7]
  EC50: 31.8 ± 4.1 µM

## CC1CCC(C(C)C)C(OC(=O)OC(C)C)C1 (stereo not drawn) [Compound 4, Isopropyl(2-Isopropyl-5-methylcyclohexanol)carbonate]
In vitro
  CC50 at 72 h: 145 ± 74.5 µM
[3]
  Antiplasmodial activity IS (Index of Selectivity = LC50/EC50): 2.4
  EC50: 60.7 ± 1 µM
[2]
  Trypanocidal activity IS (Index of Selectivity = LC50/EC50): 0.1
  EC50: 2060 ± 175 µM
[1]
  Leishmanicidal activity IS (Index of Selectivity = LC50/EC50): 3.4
[1]; [7]
  EC50: 43.2 ± 0.3 µM

## CCCCOC(=O)OC1CC(C)CCC1C(C)C (stereo not drawn) [Compound 5, Butyl(2-Isopropyl-5-methylcyclohexanol)carbonate]
In vitro
  CC50 at 72 h: 207 ± 38.2 µM
[3]
  Antiplasmodial activity IS (Index of Selectivity = LC50/EC50): 3.7
  EC50: 56.3 ± 1 µM
[2]
  Trypanocidal activity IS (Index of Selectivity = LC50/EC50): 1.7
  EC50: 122 ± 21.4 µM
[1]
  Leishmanicidal activity class: moderate (moderate (EC50 > 50 μM < 100 μM))
  Leishmanicidal activity IS (Index of Selectivity = LC50/EC50): 3.5
  EC50: 59.3 ± 1.4 µM
[1]; [7]
  EC50: 53.3 µM

## CCCCCOC(=O)OC1CC(C)CCC1C(C)C (stereo not drawn) [Compound 6, Pentyl(2-Isopropyl-5-methylcyclohexanol)carbonate]
[2]
  Trypanocidal activity IS (Index of Selectivity = LC50/EC50): 7.4
  EC50: 29.6 ± 1.2 µM
[1]
  Leishmanicidal activity class: moderate (moderate (EC50 > 50 μM < 100 μM))
[1]; [7]
  EC50: 96.7 ± 0.6 µM
[4]
  protoscolicidal effect: greater protoscolicidal effect than menthol
[5]
  clinical efficacy: clinical efficacy similar to Albendazole

## CCCCCCOC(=O)OC1CC(C)CCC1C(C)C (stereo not drawn) [Compound 7, Hexyl(2-Isopropyl-5-methylcyclohexanol)carbonate]
In vitro
  CC50 at 72 h: 73.3 ± 15.8 µM
[3]
  Antiplasmodial activity IS (Index of Selectivity = LC50/EC50): 0.2
  Antiplasmodial activity class: low (low activity (EC50 > 100 μM))
  EC50: 432 ± 239 µM
[2]
  Trypanocidal activity IS (Index of Selectivity = LC50/EC50): 1.6
  EC50: 46.3 ± 4.9 µM
[1]
  Leishmanicidal activity IS (Index of Selectivity = LC50/EC50): 2.6
[1]; [7]
  EC50: 28.2 ± 1.1 µM

## CCCCCCCOC(=O)OC1CC(C)CCC1C(C)C (stereo not drawn) [Compound 8, Heptyl(2-Isopropyl-5-methylcyclohexanol)carbonate]
In vitro
  CC50 at 72 h: 48.4 ± 6.1 µM
[3]
  Antiplasmodial activity IS (Index of Selectivity = LC50/EC50): 0.7
  EC50: 67.4 ± 5.8 µM
[2]
  Trypanocidal activity IS (Index of Selectivity = LC50/EC50): 1.8
  EC50: 27.6 ± 4.4 µM
[1]; [7]
  EC50: > 23.5 µM

## CCCCCCCCOC(=O)OC1CC(C)CCC1C(C)C (stereo not drawn) [Compound 9, Octyl(2-Isopropyl-5-methylcyclohexanol)carbonate]
In vitro
  CC50 at 72 h: 44.1 ± 3.8 µM
[3]
  Antiplasmodial activity IS (Index of Selectivity = LC50/EC50): 0.7
  EC50: 62.4 ± 6.5 µM
[2]
  Trypanocidal activity IS (Index of Selectivity = LC50/EC50): 1.7
  EC50: 26.7 ± 4.6 µM
[1]
  Leishmanicidal activity IS (Index of Selectivity = LC50/EC50): 0.1
[1]; [7]
  EC50: 463 ± 206 µM

## COc1cccc2c1C(=O)c1c(O)c3c(c(O)c1C2=O)C[C@@](O)(C(=O)CO)C[C@@H]3O[C@H]1C[C@H](N)[C@H](O)[C@H](C)O1 [DOXO, Doxorubicin, reference compound]
In vitro
  CC50 at 72 h: 1.7 ± 0.2 µM

## CC1CCC(C(C)C)C(O)C1 (stereo not drawn) [Menthol, 2-Isopropyl-5-methylcyclohexanol]
In vitro
  CC50 at 72 h: 266 ± 188 µM
[3]
  Antiplasmodial activity IS (Index of Selectivity = LC50/EC50): 0.7
  EC50: 358 ± 51 µM
[2]
  Trypanocidal activity IS (Index of Selectivity = LC50/EC50): 1.5
  EC50: 173 ± 28.9 µM
[2]; T. cruzi amastigotes
  Trypanocidal activity class: low (low activity (EC50 > 100 μM))
[1]; [7]
  EC50: > 128 µM
[6]
  EC50: 1270 µM
